{
  "source": "paper PMC9482650",
  "about": "“Quantitative fragmentomics allow affinity mapping of interactomes” (Nature Communications, 2022)",
  "key": {"TX1BP3 PDZ": {"target": "T1, TX1BP3 PDZ (Homo sapiens, UniProt O14907)", "T1 sequence (O14907 15-112 limits assumed)": "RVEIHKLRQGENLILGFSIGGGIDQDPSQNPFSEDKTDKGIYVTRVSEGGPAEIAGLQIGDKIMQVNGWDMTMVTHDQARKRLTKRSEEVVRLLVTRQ", "assay": "Holdup assay", "type": "binding"}, "DLG1_2 PDZ": {"target": "DLG1_2 PDZ (Homo sapiens, UniProt Q12959)", "assay": "Holdup assay", "type": "binding"}, "SNX27 PDZ": {"target": "SNX27 PDZ (Homo sapiens, UniProt Q96L92)", "assay": "Holdup assay", "type": "binding"}, "SCRIB_1 PDZ": {"target": "SCRIB_1 PDZ (Homo sapiens, UniProt Q14160)", "sequence (Q14160 728-815 limits assumed)": "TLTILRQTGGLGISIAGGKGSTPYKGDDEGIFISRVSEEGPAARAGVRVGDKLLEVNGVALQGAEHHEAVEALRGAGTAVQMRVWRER", "assay": "Holdup assay", "type": "binding"}, "HEK293T cells": {"system": "HEK293T cells", "assay": "Label-free MS proteome of stable cell lines expressing HPV16 E6 or E6ΔPBM", "type": "cell-based, human", "settings": "protein level", "in_short": "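Confluent HEK293T lysates in HEPES-KOH pH 7.5, 1% Triton X-100 buffer, TCA-precipitated, reduced, alkylated, Lys-C then trypsin digested. nanoLC (90 min gradient) on LTQ-Orbitrap Elite, TOP20 CID data-dependent acquisition; SequestHT search of human SwissProt, 1% FDR. Label-free quantification by peptide XIC intensity, technical triplicates.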"}, "SYNJ2BP PDZ": {"target": "T2, SYNJ2BP PDZ (Homo sapiens, UniProt P57105)", "T2 sequence (P57105 13-100 limits assumed)": "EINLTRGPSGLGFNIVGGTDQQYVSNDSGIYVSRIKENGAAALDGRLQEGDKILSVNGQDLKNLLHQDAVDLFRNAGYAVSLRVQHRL", "assay": "Holdup assay", "type": "binding", "settings": "composite holdup affinity; 0.00=below quantification threshold; read-out: COMP pKd (converted)"}, "SCRIB2 PDZ": {"target": "T3, SCRIB2 PDZ (Homo sapiens, UniProt Q14160)", "T3 sequence (Q14160 862-950 limits assumed)": "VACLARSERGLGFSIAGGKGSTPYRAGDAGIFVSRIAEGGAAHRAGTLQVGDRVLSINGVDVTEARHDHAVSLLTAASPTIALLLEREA", "assay": "Holdup assay", "type": "binding"}, "DLG1_1 PDZ": {"target": "DLG1_1 PDZ (Homo sapiens, UniProt Q12959)", "assay": "Holdup assay", "type": "binding"}, "[1]": {"system": "Jurkat cell extract preys", "assay": "PDZ-AP-MS, biotinylated MBP-PDZ baits", "type": "binding, human", "settings": "for Difference log2: enrichment of prey", "experimental": "For PDZ-AP-MS experiments, PDZ domains were cloned as His6-AviTag-MBP-PDZ constructs. For co-expression with BirA, E. coli BL21(DE3) cells were co-transformed with His6-AviTag-MBP, or His6-AviTag-MBP-PDZ-coding and PET21a-BirA (Addgene #20857) plasmids. Simultaneously to IPTG induction, 50 µM biotin was added to the media. After cell harvesting, the lysis buffer was also supplemented with 50 µM biotin. Otherwise, expression and double affinity purification was identical as previously described in details.\nFor PBM-AP-MS experiments, 30 μl streptavidin resin was mixed with biotin or peptide at 50–60 μM concentration in 6–6.5 resin volume for 60 min to achieve resin saturation. For PDZ-AP-MS experiments, 30 μl streptavidin resin was mixed with biotinylated MBP or MBP-PDZ at 40-50 μM concentration in >1000× resin volume for 60 min to achieve resin saturation. After saturation, resins were washed a single time (ten resin volume, holdup buffer), and were depleted with biotin (1 mM biotin, 5–10 resin volume, 10 min). Finally, resins were washed two times. 0.5 ml 2 mg/ml cell lysate was added to the dry resin (1 mg total input) and were incubated at 4 °C for 2 h. Then, the beads were washed three times with 10 resin volume buffer containing: 50 mM TRIS pH 8.5, 150 mM NaCl, 1% TritonX-100, 10× complete EDTA-free protease inhibitor cocktail, 2 mM EDTA, 1 mM TCEP. Then, the beads were washed two times with ten resin volume buffer containing: 50 mM TRIS pH 8.5, 150 mM NaCl, 1 mM TCEP. Finally, captured protein was eluted from the resin in two steps and the eluted fractions were pooled. For each elution the beads were incubated for 30 min with three resin volume buffer containing: 20 mM TRIS pH8.5, 100 mM NaCl, 500 μM TCEP, 8 M Urea. Between each step, the beads were separated by mild centrifugation and the supernatant was removed by gentle pipetting.\nThe samples were precipitated with TCA 20% overnight at 4 °C and centrifuged at 14,000 rpm for 10 min at 4 °C. The protein pellets were washed twice with 1 mL cold acetone and air dried. The protein extracts were solubilized in urea 8 M, reduced with 5 mM TCEP for 30 min, and alkylated with 10 mM iodoacetamide for 30 min in the dark. Double digestion was performed at 37 °C with 500 ng endoproteinase Lys-C for 4 h, followed by fourfold dilution and an overnight digestion with 500 ng trypsin. Peptide mixtures were then desalted on C18 spin-column and dried on Speed-Vacuum.\nSamples were analyzed using an Ultimate 3000 nano-RSLC (Thermo Scientific, San Jose California) coupled in line with a LTQ-Orbitrap ELITE mass spectrometer via a nano-electrospray ionization source (Thermo Scientific, San Jose California). Peptide mixtures were injected in 0.1% TFA on a C18 Acclaim PepMap100 trap-column (75 µm ID × 2 cm, 3 µm, 100 Å, Thermo Fisher Scientific) for 3 min at 5 µL/min with 2% ACN, 0.1% FA in H2O and then separated on a C18 Accucore nano-column (75 µm ID × 50 cm, 2.6 µm, 150 Å, Thermo Fisher Scientific) at 220 nl/min and 38 °C with a 90 min linear gradient from 5% to 30% buffer B (A: 0.1% FA in H2O/B: 99% ACN, 0.1% FA in H2O), regeneration at 5% B. The mass spectrometer was operated in positive ionization mode, in data-dependent mode with survey scans from m/z 350–1500 acquired in the Orbitrap at a resolution of 120,000 at m/z 400. The 20 most intense peaks from survey scans were selected for further fragmentation in the Linear Ion Trap with an isolation window of 2.0 Da and were fragmented by CID with normalized collision energy of 35%. (TOP20CID method) Unassigned and single charged states were excluded from fragmentation. The Ion Target Value for the survey scans (in the Orbitrap) and the MS2 mode (in the Linear Ion Trap) were set to 1E6 and 5E3 respectively and the maximum injection time was set to 100 ms for both scan modes. Dynamic exclusion was set to 20 s after one repeat count with mass width at ±10 ppm. […]"}, "[2]": {"settings": "holdup affinity of the PBM peptide of the named protein, sheet PBMcomplexome, lower sub-table, 3.5 appears to be the floor for no detectable binding, read-out: affinity of PBM to TX1BP3 (pKd) (converted)"}, "[3]": {"settings": "PBM motif of the named protein vs DLG1_2 PDZ, read-out: pKd values – domain-motif, DLG1_2 (converted)"}, "[4]": {"settings": "PBM motif of the named protein vs TX1BP3 PDZ, read-out: pKd values – domain-motif, TX1BP3 (converted)"}, "[5]": {"settings": "PBM motif of the named protein vs SCRIB_1 PDZ, read-out: pKd values – domain-motif, SCRIB_1 (converted)"}},
  "note": "Where two headings read alike, the source gives them in different places. Square brackets hold non-standard residues; d marks the D form. Ends that are not written are not given here. Peptide text beside a SMILES is read from it. pS = N[C@@H](COP(=O)(O)O)C(=O)O",
  "data": [
    {"molecule": "DRIQSCLSDA [SBF1]", "values": [
      {"measurement": "Kd", "setting": "TX1BP3 PDZ; [2]", "value": 91.2, "unit": "µM"}
    ]},
    {"molecule": "ELSATVTTDC [TRIP6]", "values": [
      {"measurement": "Kd", "setting": "DLG1_2 PDZ; [3]", "value": 214, "unit": "µM"},
      {"measurement": "Kd", "setting": "TX1BP3 PDZ; [4]", "value": 331, "unit": "µM"},
      {"measurement": "Kd", "setting": "SNX27 PDZ", "value": 26.9, "unit": "µM"},
      {"measurement": "Kd", "setting": "SCRIB_1 PDZ; [5]", "value": 33.1, "unit": "µM"}
    ]},
    {"molecule": "ESYT2", "values": [
      {"measurement": "Difference log2 E6/Ctrl", "setting": "HEK293T cells; E6 cell line vs control", "value": -0.8847},
      {"measurement": "Ratio E6/Ctrl", "setting": "HEK293T cells; E6 cell line vs control", "value": 0.5416},
      {"measurement": "Difference log2 dPBM/E6", "setting": "HEK293T cells; dPBM cell line vs E6 cell line", "value": -0.2136},
      {"measurement": "Ratio dPBM/E6", "setting": "HEK293T cells; dPBM cell line vs E6 cell line", "value": 0.8624},
      {"measurement": "Difference log2 dPBM/Ctrl", "setting": "HEK293T cells; dPBM cell line vs control", "value": -1.098},
      {"measurement": "Ratio dPBM/Ctrl", "setting": "HEK293T cells; dPBM cell line vs control", "value": 0.4671}
    ]},
    {"molecule": "RVRKLPSTTL [RPS6KA1]", "values": [
      {"measurement": "Kd", "setting": "SYNJ2BP PDZ", "value": 151, "unit": "µM"}
    ]},
    {"molecule": "CC(C)C[C@H](NC(=O)[C@@H](NC(=O)[C@@H](NC(=O)[C@H](COP(=O)(O)O)NC(=O)[C@@H]1CCCN1C(=O)[C@H](CC(C)C)NC(=O)[C@H](CCCCN)NC(=O)[C@H](CCCNC(=N)N)NC(=O)[C@@H](NC(=O)[C@@H](N)CCCNC(=N)N)C(C)C)[C@@H](C)O)[C@@H](C)O)C(=O)O", "note": "[p-3 phosphorylated RPS6KA1] (H-RVRKLP[pS]TTL-OH)", "values": [
      {"measurement": "Kd", "setting": "SYNJ2BP PDZ", "value": 33.1, "unit": "µM"}
    ]},
    {"molecule": "PKMKLNETSF [SHKBP1]", "values": [
      {"measurement": "Kd", "setting": "SNX27 PDZ", "value": 2.88, "unit": "µM"},
      {"measurement": "Kd", "setting": "SCRIB_1 PDZ; [5]", "value": 49, "unit": "µM"}
    ]},
    {"molecule": "SPLHSLETSL [ATP2B1]", "values": [
      {"measurement": "Kd", "setting": "DLG1_2 PDZ; [3]", "value": 21.4, "unit": "µM"},
      {"measurement": "Kd", "setting": "SCRIB2 PDZ; PBM motif of the named protein vs SCRIB_2 PDZ, read-out: pKd values – domain-motif, SCRIB_2 (converted)", "value": 53.7, "unit": "µM"},
      {"measurement": "Kd", "setting": "DLG1_1 PDZ; PBM motif of the named protein vs DLG1_1 PDZ, read-out: pKd values – domain-motif, DLG1_1 (converted)", "value": 75.9, "unit": "µM"},
      {"measurement": "Kd", "setting": "TX1BP3 PDZ; [4]", "value": 35.5, "unit": "µM"},
      {"measurement": "Kd", "setting": "SNX27 PDZ", "value": 3.31, "unit": "µM"},
      {"measurement": "Kd", "setting": "SCRIB_1 PDZ; [5]", "value": 4.37, "unit": "µM"}
    ]},
    {"molecule": "VIM", "values": [
      {"measurement": "Difference log2", "setting": "[1]; bait SCRIB_1 PDZ vs MBP", "value": 7.128},
      {"measurement": "Ratio SCRIB_1/MBP", "setting": "[1]; bait SCRIB_1 PDZ, fold change of prey", "value": 139.918},
      {"measurement": "Difference log2", "setting": "[1]; bait SNX27 PDZ vs MBP", "value": 6.235},
      {"measurement": "Ratio SNX27/MBP", "setting": "[1]; bait SNX27 PDZ, fold change of prey", "value": 75.3373},
      {"measurement": "Difference log2", "setting": "[1]; bait TX1BP3 PDZ vs MBP", "value": 7.255},
      {"measurement": "Ratio TX1BP3/MBP", "setting": "[1]; bait TX1BP3 PDZ, fold change of prey", "value": 152.718}
    ]},
    {"molecule": "HSATSVHTSV [MTMR1]", "values": [
      {"measurement": "Kd", "setting": "DLG1_2 PDZ; holdup affinity of the PBM peptide of the named protein, sheet PBMcomplexome, lower sub-table, 3.5 appears to be the floor for no detectable binding, read-out: affinity of PBM to DLG1_2 (pKd) (converted)", "value": 12.6, "unit": "µM"},
      {"measurement": "Kd", "setting": "SCRIB2 PDZ; holdup affinity of the PBM peptide of the named protein, sheet PBMcomplexome, lower sub-table, 3.5 appears to be the floor for no detectable binding, read-out: affinity of PBM to SCRIB_2 (pKd) (converted)", "value": 112, "unit": "µM"},
      {"measurement": "Kd", "setting": "DLG1_1 PDZ; holdup affinity of the PBM peptide of the named protein, sheet PBMcomplexome, lower sub-table, 3.5 appears to be the floor for no detectable binding, read-out: affinity of PBM to DLG1_1 (pKd) (converted)", "value": 55, "unit": "µM"},
      {"measurement": "Kd", "setting": "TX1BP3 PDZ; [2]", "value": 158, "unit": "µM"},
      {"measurement": "Kd", "setting": "SNX27 PDZ; holdup affinity of the PBM peptide of the named protein, sheet PBMcomplexome, lower sub-table", "value": 110, "unit": "µM"},
      {"measurement": "Kd", "setting": "SCRIB_1 PDZ; holdup affinity of the PBM peptide of the named protein, sheet PBMcomplexome, lower sub-table, 3.5 appears to be the floor for no detectable binding, read-out: affinity of PBM to SCRIB_1 (pKd) (converted)", "value": 162, "unit": "µM"}
    ]},
    {"molecule": "GGPKEEESPV [SLC16A1]", "values": [
      {"measurement": "Kd", "setting": "DLG1_2 PDZ; [3]", "value": 275, "unit": "µM"},
      {"measurement": "Kd", "setting": "SNX27 PDZ", "value": 5.37, "unit": "µM"},
      {"measurement": "Kd", "setting": "SCRIB_1 PDZ; [5]", "value": 6.61, "unit": "µM"}
    ]}
  ]
}
